From article PMC10882719 (Frontiers in Neuroscience, 2024)
Like-named read-outs stand apart in the source and are kept apart here.

What was measured:
Type in all cases: cell-based
168 GPCRs [1] = target: T1, 168 GPCRs (Homo sapiens, UniProt Q8TCW9); details: PROKR1
T1 construct: host or cells: PathHunter cell lines

168 GPCRs [2] = target: T2, 168 GPCRs (Homo sapiens, UniProt P47872); details: SCTR
T2 construct: host or cells: PathHunter cell lines

168 GPCRs [3] = target: T3, 168 GPCRs (Homo sapiens, UniProt P41968); details: MC3R
T3 construct: host or cells: PathHunter cell lines
T3 sequence (P41968 whole entry): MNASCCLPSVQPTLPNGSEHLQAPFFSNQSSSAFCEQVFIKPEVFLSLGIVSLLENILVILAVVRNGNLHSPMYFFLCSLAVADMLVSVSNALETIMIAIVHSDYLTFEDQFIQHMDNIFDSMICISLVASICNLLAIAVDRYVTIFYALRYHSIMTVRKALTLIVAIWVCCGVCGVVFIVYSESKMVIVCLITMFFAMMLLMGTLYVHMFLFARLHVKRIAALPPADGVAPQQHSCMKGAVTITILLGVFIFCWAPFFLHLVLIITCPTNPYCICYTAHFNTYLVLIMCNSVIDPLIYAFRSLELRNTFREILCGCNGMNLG

168 GPCRs [4] = target: T4, 168 GPCRs (Homo sapiens, UniProt P41586)
T4 construct: host or cells: PathHunter cell lines
T4 sequence (P41586 21-468): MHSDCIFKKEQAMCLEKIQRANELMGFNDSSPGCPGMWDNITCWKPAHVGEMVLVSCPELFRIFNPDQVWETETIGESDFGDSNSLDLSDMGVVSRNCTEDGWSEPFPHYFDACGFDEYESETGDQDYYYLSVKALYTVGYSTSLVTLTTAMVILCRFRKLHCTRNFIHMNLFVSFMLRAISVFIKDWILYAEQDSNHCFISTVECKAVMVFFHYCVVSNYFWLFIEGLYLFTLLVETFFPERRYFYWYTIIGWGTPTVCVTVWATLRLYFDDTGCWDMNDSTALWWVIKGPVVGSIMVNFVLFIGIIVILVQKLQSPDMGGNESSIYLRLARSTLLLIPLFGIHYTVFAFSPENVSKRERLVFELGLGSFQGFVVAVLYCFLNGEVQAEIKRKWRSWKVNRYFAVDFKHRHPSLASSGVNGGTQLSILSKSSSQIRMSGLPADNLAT

168 GPCRs [5] = target: T5, 168 GPCRs (Homo sapiens, UniProt P34981); details: TRHR
T5 construct: host or cells: PathHunter cell lines
T5 sequence (P34981 1-398): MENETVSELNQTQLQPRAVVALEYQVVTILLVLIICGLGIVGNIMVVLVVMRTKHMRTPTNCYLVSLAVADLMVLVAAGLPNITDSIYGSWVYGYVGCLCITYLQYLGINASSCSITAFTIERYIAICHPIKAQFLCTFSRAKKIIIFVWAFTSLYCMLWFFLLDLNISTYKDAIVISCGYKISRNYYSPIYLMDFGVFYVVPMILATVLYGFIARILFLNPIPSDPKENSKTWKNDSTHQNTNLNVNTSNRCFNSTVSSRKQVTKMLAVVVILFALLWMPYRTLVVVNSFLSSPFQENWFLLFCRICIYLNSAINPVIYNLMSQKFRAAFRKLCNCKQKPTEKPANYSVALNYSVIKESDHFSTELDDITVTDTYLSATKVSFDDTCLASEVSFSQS

168 GPCRs [6] = target: T6, 168 GPCRs (Homo sapiens, UniProt P51685)
T6 construct: host or cells: PathHunter cell lines
T6 sequence (P51685 whole entry): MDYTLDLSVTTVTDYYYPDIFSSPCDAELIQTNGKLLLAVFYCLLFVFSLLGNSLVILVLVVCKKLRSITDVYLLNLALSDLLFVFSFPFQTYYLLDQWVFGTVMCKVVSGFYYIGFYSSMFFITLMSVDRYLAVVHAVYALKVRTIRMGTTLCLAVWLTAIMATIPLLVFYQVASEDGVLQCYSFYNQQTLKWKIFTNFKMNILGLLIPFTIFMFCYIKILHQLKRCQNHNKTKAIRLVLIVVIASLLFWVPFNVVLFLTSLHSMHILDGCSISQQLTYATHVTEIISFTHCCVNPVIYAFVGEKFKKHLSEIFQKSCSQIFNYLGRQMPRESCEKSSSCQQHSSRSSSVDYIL

168 GPCRs [7] = target: T7, 168 GPCRs (Homo sapiens, UniProt Q96LB2)
T7 construct: host or cells: PathHunter cell lines
T7 sequence (Q96LB2 whole entry): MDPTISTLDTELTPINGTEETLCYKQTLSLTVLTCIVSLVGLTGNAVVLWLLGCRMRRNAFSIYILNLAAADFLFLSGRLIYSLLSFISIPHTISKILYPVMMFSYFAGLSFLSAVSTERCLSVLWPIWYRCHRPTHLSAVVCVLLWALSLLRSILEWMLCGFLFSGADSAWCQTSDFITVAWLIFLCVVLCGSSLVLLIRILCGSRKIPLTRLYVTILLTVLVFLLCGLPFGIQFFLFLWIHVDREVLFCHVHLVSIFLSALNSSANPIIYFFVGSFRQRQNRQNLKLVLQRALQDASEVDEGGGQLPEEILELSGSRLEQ

168 GPCRs [8] = target: T8, 168 GPCRs (Homo sapiens, UniProt Q9HB89); details: NMU1R
T8 construct: host or cells: PathHunter cell lines
T8 sequence (Q9HB89 1-426): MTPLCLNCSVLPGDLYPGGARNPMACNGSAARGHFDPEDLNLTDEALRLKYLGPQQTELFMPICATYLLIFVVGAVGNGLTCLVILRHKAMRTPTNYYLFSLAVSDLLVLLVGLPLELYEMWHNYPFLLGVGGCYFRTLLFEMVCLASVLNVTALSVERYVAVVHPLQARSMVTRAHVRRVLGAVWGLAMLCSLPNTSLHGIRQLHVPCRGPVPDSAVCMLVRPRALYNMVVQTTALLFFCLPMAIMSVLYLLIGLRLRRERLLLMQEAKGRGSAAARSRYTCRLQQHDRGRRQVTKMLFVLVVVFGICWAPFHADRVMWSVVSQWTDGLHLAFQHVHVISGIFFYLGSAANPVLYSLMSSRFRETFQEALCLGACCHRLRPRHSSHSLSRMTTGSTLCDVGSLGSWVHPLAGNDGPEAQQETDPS

168 GPCRs [9] = target: T9, 168 GPCRs (Homo sapiens, UniProt P30518)
T9 construct: host or cells: PathHunter cell lines
T9 sequence (P30518 whole entry): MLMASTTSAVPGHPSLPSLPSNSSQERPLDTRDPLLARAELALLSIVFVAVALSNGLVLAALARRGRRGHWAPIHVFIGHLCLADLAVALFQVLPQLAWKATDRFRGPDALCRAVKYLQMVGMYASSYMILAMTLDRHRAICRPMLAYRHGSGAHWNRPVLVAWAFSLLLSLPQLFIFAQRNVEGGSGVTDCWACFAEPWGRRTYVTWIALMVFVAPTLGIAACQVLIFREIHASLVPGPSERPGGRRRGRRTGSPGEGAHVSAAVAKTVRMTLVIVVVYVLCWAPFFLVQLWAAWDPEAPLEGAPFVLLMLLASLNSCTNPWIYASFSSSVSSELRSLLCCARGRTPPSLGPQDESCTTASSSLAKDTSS

168 GPCRs [10] = target: T10, 168 GPCRs (Homo sapiens, UniProt P35367)
T10 construct: host or cells: PathHunter cell lines
T10 sequence (P35367 whole entry): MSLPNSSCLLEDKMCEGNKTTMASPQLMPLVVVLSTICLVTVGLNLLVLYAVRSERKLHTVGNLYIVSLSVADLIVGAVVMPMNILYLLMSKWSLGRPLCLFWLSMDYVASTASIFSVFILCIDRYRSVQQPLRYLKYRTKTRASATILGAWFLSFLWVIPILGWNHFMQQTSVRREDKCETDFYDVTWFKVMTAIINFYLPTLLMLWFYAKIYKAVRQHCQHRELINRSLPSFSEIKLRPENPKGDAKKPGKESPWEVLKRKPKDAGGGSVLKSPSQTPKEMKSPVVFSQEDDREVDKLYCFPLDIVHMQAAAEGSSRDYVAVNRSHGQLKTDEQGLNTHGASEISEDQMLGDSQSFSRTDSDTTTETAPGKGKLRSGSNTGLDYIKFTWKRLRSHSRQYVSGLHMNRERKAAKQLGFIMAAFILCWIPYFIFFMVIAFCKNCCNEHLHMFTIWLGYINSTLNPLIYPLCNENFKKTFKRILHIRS

T1 sequence (Q8TCW9 whole entry): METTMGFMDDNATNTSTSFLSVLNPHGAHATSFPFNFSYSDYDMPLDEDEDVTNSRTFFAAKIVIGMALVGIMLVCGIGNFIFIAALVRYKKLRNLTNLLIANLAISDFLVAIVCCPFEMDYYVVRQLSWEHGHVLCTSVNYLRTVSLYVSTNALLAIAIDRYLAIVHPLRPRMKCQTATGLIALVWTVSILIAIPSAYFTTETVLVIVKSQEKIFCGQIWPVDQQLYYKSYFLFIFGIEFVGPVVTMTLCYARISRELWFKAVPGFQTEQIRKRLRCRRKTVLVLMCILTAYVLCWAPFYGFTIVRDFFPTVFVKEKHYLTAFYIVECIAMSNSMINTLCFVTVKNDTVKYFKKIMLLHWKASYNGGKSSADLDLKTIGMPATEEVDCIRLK
T2 sequence (P47872 23-440): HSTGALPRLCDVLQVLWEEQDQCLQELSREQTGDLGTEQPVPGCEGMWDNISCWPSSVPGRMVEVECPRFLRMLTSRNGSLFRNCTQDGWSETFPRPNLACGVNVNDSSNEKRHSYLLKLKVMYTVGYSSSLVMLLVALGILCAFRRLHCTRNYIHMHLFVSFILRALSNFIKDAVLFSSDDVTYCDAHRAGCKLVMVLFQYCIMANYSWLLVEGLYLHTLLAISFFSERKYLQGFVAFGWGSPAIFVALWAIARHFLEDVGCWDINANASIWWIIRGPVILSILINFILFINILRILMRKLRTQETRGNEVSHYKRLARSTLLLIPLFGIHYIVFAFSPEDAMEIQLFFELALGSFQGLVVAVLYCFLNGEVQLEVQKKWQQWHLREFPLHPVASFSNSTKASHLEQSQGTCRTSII

Row | Structure (SMILES) | % Agonist Activity (168 GPCRs [1]; Conc 1 uM) [%] | % Antagonist Activity (168 GPCRs [1]; Conc 1 uM) [%] | % Agonist Activity (168 GPCRs [1]; Conc 10 uM) [%] | % Antagonist Activity (168 GPCRs [1]; Conc 10 uM) [%] | % Agonist Activity (168 GPCRs [2]; Conc 1 uM) [%] | % Antagonist Activity (168 GPCRs [2]; Conc 1 uM) [%] | % Agonist Activity (168 GPCRs [2]; Conc 10 uM) [%] | % Antagonist Activity (168 GPCRs [2]; Conc 10 uM) [%] | % Agonist Activity (168 GPCRs [3]; 1 uM) [%] | % Antagonist Activity (168 GPCRs [3]; 1 uM) [%] | % Agonist Activity (168 GPCRs [3]; 10 uM) [%] | % Antagonist Activity (168 GPCRs [3]; 10 uM) [%] | % Agonist Activity (168 GPCRs [4]; ADCYAP1R1, 1 uM) [%] | % Antagonist Activity (168 GPCRs [4]; ADCYAP1R1, 1 uM) [%] | % Agonist Activity (168 GPCRs [4]; ADCYAP1R1, 10 uM) [%] | % Antagonist Activity (168 GPCRs [4]; ADCYAP1R1, 10 uM) [%] | % Agonist Activity (168 GPCRs [5]; Conc 1 uM) [%] | % Antagonist Activity (168 GPCRs [5]; Conc 1 uM) [%] | % Agonist Activity (168 GPCRs [5]; Conc 10 uM) [%] | % Antagonist Activity (168 GPCRs [5]; Conc 10 uM) [%] | also measured
1 | CNC(C)C(=O)c1ccc2c(c1)OCO2 (centres unmarked) [methylone] | -1.3 | 8.7 | -2.8 | 3.3 | -2.6 | 5.3 | -1.4 | 2.5 | -3.2 | -5.7 | -1.8 | 0.3 | -4 | 13.6 | -3 | 12.5 | -2 | -7.2 | -2.2 | 2.8 | % Agonist Activity (168 GPCRs [6]; CCR8, 1 uM): -0.2%; % Antagonist Activity (168 GPCRs [6]; CCR8, 1 uM): 4.7%; % Agonist Activity (168 GPCRs [6]; CCR8, 10 uM): -0.6%; % Antagonist Activity (168 GPCRs [6]; CCR8, 10 uM): -0.3%; % Agonist Activity (168 GPCRs [7]; MRGPRX1, 1 uM): -1.7%; % Antagonist Activity (168 GPCRs [7]; MRGPRX1, 1 uM): -6.5%; % Agonist Activity (168 GPCRs [7]; MRGPRX1, 10 uM): -1.5%; % Antagonist Activity (168 GPCRs [7]; MRGPRX1, 10 uM): -10.2%; % Agonist Activity (168 GPCRs [8]; 1 uM): 1.3%; % Antagonist Activity (168 GPCRs [8]; 1 uM): -6.7%; % Agonist Activity (168 GPCRs [8]; 10 uM): 2%; % Antagonist Activity (168 GPCRs [8]; 10 uM): -9.3%; % Agonist Activity (168 GPCRs [9]; AVPR2, 1 uM): -0.9%; % Antagonist Activity (168 GPCRs [9]; AVPR2, 1 uM): -2.7%; % Agonist Activity (168 GPCRs [9]; AVPR2, 10 uM): 1%; % Antagonist Activity (168 GPCRs [9]; AVPR2, 10 uM): -14.8%; % Agonist Activity (168 GPCRs [10]; HRH1, 1 uM): 3%; % Antagonist Activity (168 GPCRs [10]; HRH1, 1 uM): -18%; % Agonist Activity (168 GPCRs [10]; HRH1, 10 uM): 2.5%; % Antagonist Activity (168 GPCRs [10]; HRH1, 10 uM): -2.2%
2 | CNC(C)Cc1ccc2c(c1)OCO2 (centres unmarked) [MDMA, 3,4-Methylenedioxy methamphetamine, reference compound] | 0.3 | -8.7 | 0.7 | 8.5 | 0.1 | -3.8 | -1.9 | 7.4 | 0.7 | 5.9 | 1.3 | 1.9 | -0.3 | -0.9 | -0.8 | -0.1 | -0.4 | 16.2 | -0.1 | 9.9 | % Agonist Activity (168 GPCRs [6]; CCR8, 1 uM): -0.2%; % Antagonist Activity (168 GPCRs [6]; CCR8, 1 uM): -3.1%; % Agonist Activity (168 GPCRs [6]; CCR8, 10 uM): -0.2%; % Antagonist Activity (168 GPCRs [6]; CCR8, 10 uM): 4.3%; % Agonist Activity (168 GPCRs [7]; MRGPRX1, 1 uM): 0.2%; % Antagonist Activity (168 GPCRs [7]; MRGPRX1, 1 uM): 5.1%; % Agonist Activity (168 GPCRs [7]; MRGPRX1, 10 uM): -0.4%; % Antagonist Activity (168 GPCRs [7]; MRGPRX1, 10 uM): 7.6%; % Agonist Activity (168 GPCRs [8]; 1 uM): 0%; % Antagonist Activity (168 GPCRs [8]; 1 uM): -3.7%; % Agonist Activity (168 GPCRs [8]; 10 uM): -0.1%; % Antagonist Activity (168 GPCRs [8]; 10 uM): 6.8%; % Agonist Activity (168 GPCRs [9]; AVPR2, 1 uM): -2.9%; % Antagonist Activity (168 GPCRs [9]; AVPR2, 1 uM): -7.8%; % Agonist Activity (168 GPCRs [9]; AVPR2, 10 uM): -2.2%; % Antagonist Activity (168 GPCRs [9]; AVPR2, 10 uM): -0.4%; % Agonist Activity (168 GPCRs [10]; HRH1, 1 uM): 3.1%; % Antagonist Activity (168 GPCRs [10]; HRH1, 1 uM): 13.7%; % Agonist Activity (168 GPCRs [10]; HRH1, 10 uM): 3.8%; % Antagonist Activity (168 GPCRs [10]; HRH1, 10 uM): 38.4%
